From patent US20110059043A1, “CHEMICAL COMPOUNDS” (priority 2009, published 2011)

Columns and labels:
[1] = test system: HCV replicon cells Huh 9B; type: cell-based; conditions: concentration reducing total cell area by 50% relative to DMSO controls; 72 h
Procedure, shortened: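 Huh 9B replicon cells (luciferase-ubiquitin-neomycin fusion, EMCV-IRES-driven HCV polyprotein with adaptive mutations) were seeded from a 100,000 cells/ml suspension in G418-free medium, grown 24 h, then exposed to compound (dilutions at 1% DMSO) for 72 h at 37 °C. For toxicity, methylene blue staining was read at 620 nm and TD50 derived relative to DMSO controls.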

[2] = test system: HCV replicon cells Huh 9B; assay: HCV replicon assay (luciferase); type: cell-based; conditions: Hepatitis C virus, reduction of replicon level by 50% vs untreated cell control, 72 h
[3] = molecular target: T1, Recombinant HCV polymerase (BK strain) (Hepatitis C virus genotype 1b, UniProt P26663); assay: HCV polymerase enzyme assay (radiometric [33P]-UTP incorporation); type: biochemical, HCV 1b
T1 construct: Recombinant HCV polymerase (BK strain) was expressed and purified from E. coli with a 21 amino acid C-terminal deletion; His6; made in house; host or cells: E. coli
T1 sequence (P26663 2420-2989): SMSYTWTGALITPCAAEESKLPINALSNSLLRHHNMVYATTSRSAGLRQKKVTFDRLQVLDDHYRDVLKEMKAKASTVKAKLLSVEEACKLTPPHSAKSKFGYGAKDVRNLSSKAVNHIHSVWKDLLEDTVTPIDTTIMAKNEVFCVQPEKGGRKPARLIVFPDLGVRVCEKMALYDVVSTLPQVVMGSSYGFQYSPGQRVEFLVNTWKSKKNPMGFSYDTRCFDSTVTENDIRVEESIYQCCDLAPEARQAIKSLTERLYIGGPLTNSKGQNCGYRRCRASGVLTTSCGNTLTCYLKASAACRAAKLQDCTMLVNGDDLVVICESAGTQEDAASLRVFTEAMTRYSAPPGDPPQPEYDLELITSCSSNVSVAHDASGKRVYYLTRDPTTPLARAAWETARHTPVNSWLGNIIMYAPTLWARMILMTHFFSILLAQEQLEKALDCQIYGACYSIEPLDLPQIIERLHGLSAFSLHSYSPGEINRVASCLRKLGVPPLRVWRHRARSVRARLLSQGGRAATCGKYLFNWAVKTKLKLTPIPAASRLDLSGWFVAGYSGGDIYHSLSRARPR
Procedure, shortened: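 His6-tagged BK-strain NS5B lacking 21 C-terminal residues, expressed in E. coli, at 100 nM in Tris pH 7.5 with 5 mM MgCl2 and 3% DMSO. Substrates: 125 nM biotin-U13:0.63 μg/ml PolyA, 200 nM UTP plus [33P]-UTP; 100 min at 25° C. Incorporation read by streptavidin capture; IC50 from 8-point curve.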

| Compound | Replicon Assay Value TD50 [1] [µM] | IC50 [2] [µM] | IC50 [3] [µM] |
| --- | --- | --- | --- |
| COCCOc1ncc(F)cc1C(=O)N[C@@H]1N=C(c2c(Cl)cc(Cl)cc2Cl)c2ccccc2NC1=O [Example 64, (R)-5-Fluoro-2-(2-methoxyethoxy)-N-(2-oxo-5-(2,4,6-trichlorophenyl)-2,3-dihydro-1H-benzo[e][1,4]diazepin-3-yl)nicotinamide] | 23.452 | 0.241 | 2.07 |
| CCOCCOc1ncc(F)cc1C(=O)N[C@H]1N=C(c2c(Cl)cc(Cl)cc2Cl)c2ccccc2NC1=O [Example 65, (S)-2-(2-Ethoxyethoxy)-5-fluoro-N-(2-oxo-5-(2,4,6-trichlorophenyl)-2,3-dihydro-1H-benzo[e][1,4]diazepin-3-yl)nicotinamide] | 10.854 | 0.0048 | 0.0323 |
| CCOCCOc1ncc(F)cc1C(=O)N[C@@H]1N=C(c2c(Cl)cc(Cl)cc2Cl)c2ccccc2NC1=O [Example 66, (R)-2-(2-Ethoxyethoxy)-5-fluoro-N-(2-oxo-5-(2,4,6-trichlorophenyl)-2,3-dihydro-1H-benzo[e][1,4]diazepin-3-yl)nicotinamide] | 16.686 | 0.163 | 2.22 |
| COCCN(C)c1ncc(F)cc1C(=O)N[C@H]1N=C(c2c(Cl)cc(Cl)cc2Cl)c2ccccc2NC1=O [Example 67, (S)-5-Fluoro-2-((2-methoxyethyl)(methyl)amino)-N-(2-oxo-5-(2,4,6-trichlorophenyl)-2,3-dihydro-1H-benzo[e][1,4]diazepin-3-yl)nicotinamide] | 13.07 | 0.0112 | 0.0363 |
| COCCN(C)c1ncc(F)cc1C(=O)N[C@@H]1N=C(c2c(Cl)cc(Cl)cc2Cl)c2ccccc2NC1=O [Example 68, (R)-5-Fluoro-2-((2-methoxyethyl)(methyl)amino)-N-(2-oxo-5-(2,4,6-trichlorophenyl)-2,3-dihydro-1H-benzo[e][1,4]diazepin-3-yl)nicotinamide] | 16.618 | 0.36 | 5.17 |
| CCOc1cc(Cl)cc(Cl)c1C1=N[C@H](NC(=O)c2cc(F)ccc2OCCOC)C(=O)Nc2ccccc21 [Example 69, (S)—N-(5-(2,4-Dichloro-6-ethoxyphenyl)-2-oxo-2,3-dihydro-1H-benzo[e][1,4]diazepin-3-yl)-5-fluoro-2-(2-methoxyethoxy)benzamide] | 17.731 | 0.0313 | 0.0792 |
| CCOc1cc(Cl)cc(Cl)c1C1=N[C@@H](NC(=O)c2cc(F)ccc2OCCOC)C(=O)Nc2ccccc21 [Example 70, (R)—N-(5-(2,4-Dichloro-6-ethoxyphenyl)-2-oxo-2,3-dihydro-1H-benzo[e][1,4]diazepin-3-yl)-5-fluoro-2-(2-methoxyethoxy)benzamide] | 24.592 | 0.737 | 5.36 |
